{
  "source": "patent US10947213B1",
  "about": "(Merck Patent GmbH, priority 2015, dated 2021)",
  "note": "Where a name gives a salt, the structure may show the parent alone.",
  "data": [
    {"molecular_target": "T1, TLR7/NFKb HEK cells (Homo sapiens, UniProt Q9NYK1)", "T1 construct": "expressed in transfected cells; host or cells: HEK cells (TLR7/NFKb reporter line)", "T1 sequence (Q9NYK1 27-1049)": "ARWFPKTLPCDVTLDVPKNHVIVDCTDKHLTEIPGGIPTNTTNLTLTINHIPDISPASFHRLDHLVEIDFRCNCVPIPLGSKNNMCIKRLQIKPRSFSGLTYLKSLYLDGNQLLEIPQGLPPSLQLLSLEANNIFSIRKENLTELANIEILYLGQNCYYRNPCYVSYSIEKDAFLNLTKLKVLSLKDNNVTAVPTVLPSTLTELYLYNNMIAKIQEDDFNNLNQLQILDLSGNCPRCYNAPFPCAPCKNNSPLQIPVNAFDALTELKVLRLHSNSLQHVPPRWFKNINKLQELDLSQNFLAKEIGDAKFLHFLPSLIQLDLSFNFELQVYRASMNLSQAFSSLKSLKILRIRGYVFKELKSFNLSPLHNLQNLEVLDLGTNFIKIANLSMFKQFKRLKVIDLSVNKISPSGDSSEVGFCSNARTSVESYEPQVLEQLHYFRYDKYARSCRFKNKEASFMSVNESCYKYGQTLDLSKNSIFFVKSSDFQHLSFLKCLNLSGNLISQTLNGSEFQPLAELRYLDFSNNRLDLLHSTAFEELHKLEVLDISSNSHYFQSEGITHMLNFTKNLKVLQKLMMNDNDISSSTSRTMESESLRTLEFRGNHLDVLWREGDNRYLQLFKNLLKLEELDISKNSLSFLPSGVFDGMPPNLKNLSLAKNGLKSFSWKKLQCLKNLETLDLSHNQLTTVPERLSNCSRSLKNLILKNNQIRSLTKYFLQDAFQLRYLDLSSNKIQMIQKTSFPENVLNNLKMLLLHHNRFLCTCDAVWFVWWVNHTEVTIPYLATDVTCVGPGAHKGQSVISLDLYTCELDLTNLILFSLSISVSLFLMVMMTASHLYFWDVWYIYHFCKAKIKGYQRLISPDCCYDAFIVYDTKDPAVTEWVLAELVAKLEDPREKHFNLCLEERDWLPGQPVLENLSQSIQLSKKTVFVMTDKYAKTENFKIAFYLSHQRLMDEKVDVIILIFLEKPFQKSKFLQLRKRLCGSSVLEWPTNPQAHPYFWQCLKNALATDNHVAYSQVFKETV", "assay": "HEK Cell Assay (TLR7/NFKb reporter, Steady-Glo luciferase readout)", "format": "cell-based", "conditions": "30 min compound preincubation, then R*48 agonist for 5 hours, read-out: Potency", "method_in_brief": "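Steady-Glo luminescence after 5 h stimulation with R*48 agonist, following 30 min compound preincubation. Assay run in HEK cells carrying a TLR7/NFKb luciferase reporter, plated at 5000 cells/well and grown 24 h at 37° C (10% CO2) before treatment.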", "units": {"IC50": "nM"}, "values": [
      {"smiles": "CCN(CC)CCC(=O)NC1CCN(c2ccnc3nccnc23)CC1", "note": "[Compound 396, 3-Diethylamino-N-(1-pyrido[2,3-b]pyrazin-8-yl-piperidin-4-yl)-propionamide]", "IC50": "> 10000"},
      {"smiles": "C[C@H]1C[C@@H](NC(=O)CC(F)(F)F)CN(c2ccnc3nccnc23)C1", "note": "[Compound 120, 3,3,3-trifluoro-N-[(3R,5S)-5-methyl-1-[pyrido[2,3-b]pyrazin-8-yl]piperidin-3-yl]propanamide]", "IC50": "> 10000"},
      {"smiles": "C[C@H]1C[C@@H](NC(=O)CC(O)C(C)(C)C)CN(c2ccnc3nccnc23)C1", "note": "(single isomer, unassigned) [Compound 148]", "IC50": "> 10000"},
      {"smiles": "CC(C)[C@H](O)C(=O)N[C@@H]1C[C@H](C)CN(c2ccc(C(N)=O)c3ncccc23)C1", "note": "[Compound 181, 5-[(3R,5S)-3-[(2S)-2-hydroxy-3-methylbutanamido]-5-methylpiperidin-1-yl]quinoline-8-carboxamide]", "IC50": "> 10000"},
      {"smiles": "CC(C(=O)N[C@@H]1C[C@H](C)CN(c2ccc(C(F)(F)F)c3nccnc23)C1)N1CCC(O)CC1", "note": "(single isomer, unassigned) [Compound 371]", "IC50": "< 1000"},
      {"smiles": "C[C@H]1C[C@@H](NC(=O)CN2CC(O)C2)CN(c2ccc(C(F)(F)F)c3ncccc23)C1", "note": "[Compound 284]", "IC50": "< 1000"},
      {"smiles": "C[C@H]1C[C@@H](N)CN(c2ncc(C#N)c3ncncc23)C1", "note": "[Compound 458, 5-((3R,5S)-3-Amino-5-methyl-piperidin-1-yl)-pyrido[4,3-d]pyrimidine-8-carbonitrile hydrochloride]", "IC50": "> 10000"},
      {"smiles": "N#Cc1ccc(N2CCC(C(=O)NCCN3CCCCC3)CC2)c2nccnc12", "note": "[Compound 440, 1-(8-Cyano-quinoxalin-5-yl)-piperidine-4-carboxylic Acid (2-piperidin-1-yl-ethyl)-amide]", "IC50": "< 1000"},
      {"smiles": "CN(C)CC(=O)NC1CN(c2ccc(C#N)c3ncccc23)CC(F)(F)C1", "note": "(single isomer, unassigned) [Compound 450]", "IC50": "1000 to 10000"},
      {"smiles": "CCN(C)CC(=O)NCC1CCN(c2ccnc3nccnc23)CC1", "note": "[Compound 408, 2-(Ethyl-methyl-amino)-N-(1-pyrido[2,3-b]pyrazin-8-yl-piperidin-4-ylmethyl)-acetamide]", "IC50": "1000 to 10000"},
      {"smiles": "CC(C)(C)CC(=O)NCC1CCN(c2ccnc3nccnc23)CC1", "note": "[Compound 399, 3,3-Dimethyl-N-(1-pyrido[2,3-b]pyrazin-8-yl-piperidin-4-ylmethyl)-butyramide]", "IC50": "> 10000"},
      {"smiles": "C[C@H]1C[C@@H](NC2CCC(O)CC2)CN(c2ccc(C#N)c3nccnc23)C1", "note": "(single isomer, unassigned) [Compound 136]", "IC50": "< 1000"},
      {"smiles": "C[C@H]1C[C@@H](NC(=O)CC2(C)CCN(C)CC2)CN(c2ccc(C(F)(F)F)c3ncccc23)C1", "note": "[Compound 245, 2-(1,4-dimethylpiperidin-4-yl)-N-[(3R,5S)-5-methyl-1-[8-(trifluoromethyl)quinolin-5-yl]piperidin-3-yl]acetamide]", "IC50": "< 1000"},
      {"smiles": "CCN(CC)CC(=O)N(C)CC1CCN(c2ccnc3nccnc23)CC1", "note": "[Compound 405, 2-Diethylamino-N-methyl-N-(1-pyrido[2,3-b]pyrazin-8-yl-piperidin-4-ylmethyl)-acetamide]", "IC50": "1000 to 10000"},
      {"smiles": "O=C(CN1CCOCC1)N[C@H]1C[C@@H](C2CC2)CN(c2ccc(F)c3ncccc23)C1", "note": "(racemic) [Compound 367, cis-N-[5-cyclopropyl-1-(8-fluoroquinolin-5-yl)piperidin-3-yl]-2-(morpholin-4-yl)acetamide]", "IC50": "> 10000"},
      {"smiles": "CN(C)CC(=O)NC1CN(c2ccc(C#N)c3ncccc23)CC(F)(F)C1", "note": "(stereo not shown) [Compound 425, N-[1-(8-Cyano-quinolin-5-yl)-5,5-difluoro-piperidin-3-yl]-2-dimethylamino-acetamide]", "IC50": "< 1000"},
      {"smiles": "O=C(CN1CCCCC1)NCC1CCN(c2ccc(C(F)(F)F)c3ncccc23)CC1", "note": "[Compound 448, 2-Piperidin-1-yl-N-[1-(8-trifluoromethyl-quinolin-5-yl)-piperidin-4-ylmethyl]-acetamide]", "IC50": "1000 to 10000"},
      {"smiles": "C[C@H]1C[C@@H](NC(=O)COC(C)(C)C)CN(c2ccnc3nccnc23)C1", "note": "[Compound 164, 2-(tert-butoxy)-N-[(3R,5S)-5-methyl-1-[pyrido[2,3-b]pyrazin-8-yl]piperidin-3-yl]acetamide]", "IC50": "> 10000"},
      {"smiles": "C[C@H]1C[C@@H](NC(=O)C2CCN(C3CC3)CC2)CN(c2ccc(C(F)(F)F)c3ncccc23)C1", "note": "[Compound 574, 1-Cyclopropyl-piperidine-4-carboxylic acid [(3R,5S)-5-methyl-1-(8-trifluoromethyl-quinolin-5-yl)-piperidin-3-yl]-amide]", "IC50": "< 1000"},
      {"smiles": "CCN(CC)CCNC(=O)C1CCN(c2ccc(C#N)c3nccnc23)CC1", "note": "[Compound 432, 1-(8-Cyano-quinoxalin-5-yl)-piperidine-4-carboxylic acid (2-diethylamino-ethyl)-amide]", "IC50": "< 1000"},
      {"smiles": "CC(C(=O)N[C@@H]1C[C@H](C)CN(c2ccc(C(F)(F)F)c3ncccc23)C1)N1CC(F)(F)C1", "note": "(stereo partly drawn) [Compound 287, 2-(3,3-difluoroazetidin-1-yl)-N-[(3R,5S)-5-methyl-1-[8-(trifluoromethyl)quinolin-5-yl]piperidin-3-yl]propanamide]", "IC50": "< 1000"},
      {"smiles": "C[C@H]1C[C@@H](NC(=O)CN2CCCN(C)CC2)CN(c2ccc(C(F)(F)F)c3ncccc23)C1", "note": "[Compound 290, 2-(4-methyl-1,4-diazepan-1-yl)-N-[(3R,5S)-5-methyl-1-[8-(trifluoromethyl)quinolin-5-yl]piperidin-3-yl]acetamide]", "IC50": "< 1000"},
      {"smiles": "N#Cc1ccc(N2C[C@@H](NC(=O)CC(F)(F)F)C[C@@H](C(F)(F)F)C2)c2cccnc12", "note": "(relative stereo) [Compound 428, cis-N-[1-(8-Cyano-quinolin-5-yl)-5-trifluoromethyl-piperidin-3-yl]-3,3,3-trifluoro-propionamide]", "IC50": "< 1000"},
      {"smiles": "CCN(CC)CCNCC1CCN(c2ccnc3cc(F)ccc23)CC1", "note": "[Compound 383, N,N-Diethyl-N′-[1-(7-fluoro-quinolin-4-yl)-piperidin-4-ylmethyl]-ethane-1,2-diamine]", "IC50": "1000 to 10000"},
      {"smiles": "C[C@H]1C[C@@H](NC2CCN(C)C2=O)CN(c2ccc(C(F)(F)F)c3nccnc23)C1", "note": "(single isomer, unassigned) [Compound 352]", "IC50": "< 1000"},
      {"smiles": "C[C@H]1C[C@@H](NC(=O)CC(C)(C)C)CN(c2ccc(C(F)(F)F)c3ncccc23)C1", "note": "[Compound 195, 3,3-dimethyl-N-[(3R,5S)-5-methyl-1-[8-(trifluoromethyl)quinolin-5-yl]piperidin-3-yl]butanamide]", "IC50": "< 1000"},
      {"smiles": "O=C(CN1CCOCC1)N[C@H]1C[C@@H](C2CC2)CN(c2ccc(C(F)(F)F)c3nccnc23)C1", "note": "(relative stereo) [Compound 335, cis-N-[5-cyclopropyl-1-[8-(trifluoromethyl)quinoxalin-5-yl]piperidin-3-yl]-2-(morpholin-4-yl)acetamide]", "IC50": "> 10000"},
      {"smiles": "COCCN[C@@H]1C[C@H](C)CN(c2ccnc3nccnc23)C1", "note": "[Compound 18, (3R,5S)—N-(2-methoxyethyl)-5-methyl-1-(pyrido[2,3-b]pyrazin-8-yl)piperidin-3-amine]", "IC50": "> 10000"},
      {"smiles": "C[C@H]1C[C@@H](NC(=O)CN2CCN(C)CC2)CN(c2ccc(C(F)(F)F)c3nccnc23)C1", "note": "[Compound 259, N-[(3R,5S)-5-methyl-1-[8-(trifluoromethyl)quinoxalin-5-yl]piperidin-3-yl]-2-(4-methylpiperazin-1-yl)acetamide]", "IC50": "< 1000"},
      {"smiles": "CCN(CC)CC(=O)NCC1CCN(c2ccc(C#N)c3ncccc23)CC1", "note": "[Compound 398, N-[1-(8-Cyano-quinolin-5-yl)-piperidin-4-ylmethyl]-2-diethylamino-acetamide]", "IC50": "< 1000"},
      {"smiles": "C[C@H]1C[C@@H](NC(=O)CC2CCN(C)CC2)CN(c2ccc(C(F)(F)F)c3ncccc23)C1", "note": "[Compound 244, N-[(3R,5S)-5-methyl-1-[8-(trifluoromethyl)quinolin-5-yl]piperidin-3-yl]-2-(1-methylpiperidin-4-yl)acetamide]", "IC50": "< 1000"},
      {"smiles": "CC(C)[C@H](O)C(=O)NC1CC(C(F)(F)F)CN(c2ccc(C#N)c3ncccc23)C1", "note": "(single isomer, unassigned) [Compound 429]", "IC50": "> 10000"},
      {"smiles": "CC(C)(C)OCC(=O)NCC1CCN(c2ccc(C#N)c3ncccc23)CC1", "note": "[Compound 412, 2-tert-Butoxy-N-[1-(8-cyano-quinolin-5-yl)-piperidin-4-ylmethyl]-acetamide]", "IC50": "> 10000"},
      {"smiles": "C[C@H]1C[C@@H](NC(=O)Cn2cccn2)CN(c2ccc(C#N)c3nccnc23)C1", "note": "[Compound 169, N-[(3R,5S)-1-(8-cyanoquinoxalin-5-yl)-5-methylpiperidin-3-yl]-2-(1H-pyrazol-1-yl)acetamide]", "IC50": "< 1000"}
    ]}
  ]
}
